Columns and labels:
Estrogen receptor = target: T1, Estrogen receptor (Homo sapiens, UniProt P03372)
T1 sequence (P03372 whole entry): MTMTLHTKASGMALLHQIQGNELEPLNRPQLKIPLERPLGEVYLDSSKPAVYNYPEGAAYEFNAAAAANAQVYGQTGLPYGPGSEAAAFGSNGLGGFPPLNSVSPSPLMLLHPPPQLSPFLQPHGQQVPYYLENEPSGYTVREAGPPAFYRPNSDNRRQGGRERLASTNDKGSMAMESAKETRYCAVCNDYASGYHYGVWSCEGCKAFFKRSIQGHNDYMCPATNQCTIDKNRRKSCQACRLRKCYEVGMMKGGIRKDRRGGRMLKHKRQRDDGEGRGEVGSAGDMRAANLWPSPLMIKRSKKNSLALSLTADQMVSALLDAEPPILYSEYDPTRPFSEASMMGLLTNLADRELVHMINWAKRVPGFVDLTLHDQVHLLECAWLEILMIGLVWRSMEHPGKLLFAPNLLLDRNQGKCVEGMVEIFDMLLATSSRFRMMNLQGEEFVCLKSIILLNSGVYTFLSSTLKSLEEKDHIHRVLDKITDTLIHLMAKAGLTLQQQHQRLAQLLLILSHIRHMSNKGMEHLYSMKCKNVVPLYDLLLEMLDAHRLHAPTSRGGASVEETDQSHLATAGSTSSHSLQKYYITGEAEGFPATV

Ishikawa [1] = assay: Estrogenic activity in human Ishikawa cells assessed as induction of alkaline phosphatase activity after 4 days by para-nitrophenol release assay; assay type: functional, cell-based; details: 96 h
Estrogen receptor beta = Estrogen receptor beta (Homo sapiens, UniProt Q92731)
Estrogen receptor beta, sequence (Q92731 whole entry): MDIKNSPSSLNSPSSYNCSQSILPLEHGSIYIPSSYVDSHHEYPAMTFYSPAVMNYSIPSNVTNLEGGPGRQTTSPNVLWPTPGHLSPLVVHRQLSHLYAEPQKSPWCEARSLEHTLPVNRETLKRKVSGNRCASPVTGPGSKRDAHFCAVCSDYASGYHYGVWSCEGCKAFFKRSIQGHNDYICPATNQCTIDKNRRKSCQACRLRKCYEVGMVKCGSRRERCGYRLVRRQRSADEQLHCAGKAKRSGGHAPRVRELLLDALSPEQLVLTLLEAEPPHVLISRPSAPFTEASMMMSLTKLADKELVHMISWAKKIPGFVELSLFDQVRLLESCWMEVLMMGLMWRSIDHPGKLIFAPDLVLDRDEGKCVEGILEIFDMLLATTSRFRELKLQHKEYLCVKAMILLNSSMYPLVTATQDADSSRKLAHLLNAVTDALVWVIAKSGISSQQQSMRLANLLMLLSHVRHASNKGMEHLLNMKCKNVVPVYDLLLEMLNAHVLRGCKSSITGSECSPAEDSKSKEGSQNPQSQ
Description: Displacement of [3H]estradiol from human recombinant ERbeta

Ishikawa [2] = assay: Antiestrogenic activity in human Ishikawa cells assessed as inhibition of estradiol-induced induction of alkaline phosphatase activity after 4 days by para-nitrophenol release assay; assay type: functional, cell-based; details: 96 h
Ishikawa [3] = assay: Antiestrogenic activity in human Ishikawa cells assessed as inhibition of estradiol-induced induction of alkaline phosphatase activity at 20 uM after 4 days by para-nitrophenol release assay; assay type: functional; details: 96 h

SMILES	IC50 (Estrogen receptor)	IC50 (Ishikawa [1])	IC50 (Estrogen receptor beta)	IC50 (Ishikawa [2])	inhibition at 20 µM (Ishikawa [3])
Cc1c(O)c(C)c2occ(-c3ccc(O)cc3)c(=O)c2c1O	10.2 µM	> 20000 nM	880 nM	10.5 µM	–
O=c1cc(-c2ccc(O)cc2)oc2cc(O)cc(O)c12 [APIGENIN]	–	–	–	–	25%
O=c1c(-c2ccc(O)cc2)coc2cc(O)cc(O)c12 [GENISTEIN]	–	510 nM	–	–	–

Reference: ChEMBL document CHEMBL1150148, “Isolation and structure elucidation of an isoflavone and a sesterterpenoic acid from Henriettella fascicularis” (J Nat Prod, 2002)
